PMC4096046 (Bioorganic & medicinal chemistry letters, 2014)
In brackets after ≈: the same amount, converted by molar mass.

Columns and labels:
[1] = system: H37Rv Mtb; assay: MIC against replicating H37Rv Mtb in GAS and 7H12 media; type: cell-based, Mycobacterium tuberculosis; conditions: for MIC: Mycobacterium tuberculosis, H37RV, read-out: MIC mean +/- against replicating Mtb in medium: GAS (μg/mL), GAS medium, H37Rv, recalculated from μM
[2] = system: Mycobacterium avium; assay: MIC against non-tubercular mycobacteria: M. avium; type: cell-based
[3] = system: Mycobacterium bovis BCG; assay: MIC against non-tubercular mycobacteria: M. bovis BCG; type: cell-based; conditions: Mycobacterium tuberculosis variant bovis BCG
[4] = system: Mycobacterium kansasii; assay: MIC against non-tubercular mycobacteria: M. kansasii; type: cell-based

SMILES	MIC [1]	also measured
Cc1ccn2c(C(=O)NCc3ccccc3)c(C)nc2c1 [Compound 1, N-benzyl-2,7-dimethyl-imidazo[1,2-a]pyridine-3-carboxamide]		times more potent than 12 ([1]; MIC's of 0.2 and 70 μM): 350 times
Cc1ccc2nc(C)c(C(=O)NCc3ccccc3)n2c1 [Compound 2]	0.031 ± 0.002 µg/mL (≈ 0.111 µM)	MIC [2]: 16 µM (≈ 4.47 µg/mL); MIC [3]: 1 µM (≈ 0.279 µg/mL)
Cc1cnc2nc(C)c(C(=O)NCc3ccccc3)n2c1 [Compound 6, N-benzyl-2,6-dimethylimidazo[1,2-a]pyrimidine-3-carboxamide]	0.36 ± 0.06 µg/mL (≈ 1.28 µM)	MIC [4]: 19 µM (≈ 5.33 µg/mL); MIC [3]: 8 µM (≈ 2.24 µg/mL)
Cc1ccc2nc(C)c(C(=O)NCc3ccccc3)n2n1 [Compound 7, N-benzyl-2,6-dimethylimidazo[1,2-b]pyridazine-3-carboxamide]	17.9 ± 0.5 µg/mL (≈ 63.9 µM)	
Cc1ccc2c(C(=O)NCc3ccccc3)c(C)[nH]c2c1 [Compound 8, N-Benzyl-2,6-dimethyl-1H-indole-3-carboxamide]	12.2 ± 0.3 µg/mL (≈ 43.8 µM)	
Cc1ccc2c(C(=O)NCc3ccccc3)n[nH]c2c1 [Compound 9, N-benzyl-6-methyl-1H-indazole-3-carboxamide]	10.8 ± 0.9 µg/mL (≈ 40.7 µM)	
Cc1ccn2c(C(=O)NCc3ccccc3)nnc2c1 [Compound 10, N-benzyl-7-methyl-[1,2,4]triazolo[4,3-a]pyridine-3-carboxamide]	27 ± 1.6 µg/mL (≈ 101 µM)	negative effect on potency relative to compound 2 ([1]; GAS medium, MIC of 0.1 and 101 μM): 1000 x
Cc1cc(C)n2nc(C(=O)NCc3ccccc3)nc2n1 [Compound 11, N-benzyl-5,7-dimethyl-[1,2,4]triazolo[1,5-a]pyrimidine-2-carboxamide]	35.4 ± 0.8 µg/mL (≈ 126 µM)	
Cc1ccn2c(C)c(C(=O)NCc3ccccc3)nc2c1 [Compound 12, N-benzyl-3,7-dimethylimidazo[1,2-a]pyridine-2-carboxamide]	19.6 ± 2.5 µg/mL (≈ 70.2 µM)	
